Test results published in patent US20060069132A1, “Azolecarboxamide herbicides” (priority 2004, published 2006).

Experiments:
barnyardgrass [1] = assay: Test A pre-/postemergence herbicide test; assay type: in vivo, Echinochloa crus-galli
Method in brief: (§1)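 Both application timings were run together: directed soil spray over freshly planted seeds in sandy loam, and runoff spray onto 2–10 cm seedlings. Evaluation after ~10 days in greenhouse used a 0–100 visual scale versus untreated controls.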

large crabgrass [2] = assay: Test A pre-/postemergence herbicide test; assay type: in vivo, Digitaria sanguinalis
Method in brief: as §1

giant foxtail [3] = assay: Test A pre-/postemergence herbicide test; assay type: in vivo, Setaria faberi
Method in brief: as §1

morningglory [4] = assay: Test A pre-/postemergence herbicide test; assay type: in vivo, Ipomoea spp.
Method in brief: as §1

redroot pigweed = assay: Test A pre-/postemergence herbicide test; assay type: in vivo, Amaranthus retroflexus
Method in brief: as §1

velvetleaf [5] = assay: Test A pre-/postemergence herbicide test; assay type: in vivo, Abutilon theophrasti
Method in brief: as §1

barnyardgrass [6] = assay: Test B pre-/postemergence herbicide test; assay type: in vivo, Echinochloa crus-galli; conditions: for Barnyardgrass plant response rating: postemergence
Method in brief: (§2)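 Plants compared with untreated controls 13–15 days post-treatment and given a visual 0–100 injury score. Applications: preemergence to seeds; postemergence at 1- to 4-leaf (2–18 cm); paddy species flooded, 2-leaf stage. Vehicle non-phytotoxic, surfactant included.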

Surinam grass = assay: Test B pre-/postemergence herbicide test; assay type: in vivo, Urochloa decumbens; conditions: for Surinam Grass plant response rating: postemergence
Method in brief: (§3)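 Herbicidal effect was judged by eye on a 0–100 scale after plants stood 13 to 15 days in the greenhouse following pre- or postemergence treatment with surfactant-containing formulations.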

cocklebur = assay: Test B pre-/postemergence herbicide test; assay type: in vivo, Xanthium strumarium; conditions: for Cocklebur plant response rating: postemergence
Method in brief: as §2

corn = assay: Test B pre-/postemergence herbicide test; assay type: in vivo, Zea mays; conditions: for Corn plant response rating: postemergence
Method in brief: as §3

large crabgrass [7] = assay: Test B pre-/postemergence herbicide test; assay type: in vivo, Digitaria sanguinalis; conditions: for Crabgrass, Large plant response rating: postemergence
Method in brief: as §3

giant foxtail [8] = assay: Test B pre-/postemergence herbicide test; assay type: in vivo, Setaria faberi; conditions: for Foxtail, Giant plant response rating: postemergence
Method in brief: as §3

lambsquarters = assay: Test B pre-/postemergence herbicide test; assay type: in vivo, Chenopodium album; conditions: for Lambsquarters plant response rating: postemergence
Method in brief: as §3

morningglory [9] = assay: Test B pre-/postemergence herbicide test; assay type: in vivo, Ipomoea coccinea; conditions: for Morningglory plant response rating: postemergence
Method in brief: as §2

pigweed = assay: Test B pre-/postemergence herbicide test; assay type: in vivo, Amaranthus retroflexus; conditions: for Pigweed plant response rating: postemergence
Method in brief: as §3

velvetleaf [10] = assay: Test B pre-/postemergence herbicide test; assay type: in vivo, Abutilon theophrasti; conditions: for Velvetleaf plant response rating: postemergence
Method in brief: as §3

blackgrass = assay: Test B postemergence herbicide test; assay type: in vivo, Alopecurus myosuroides; conditions: postemergence
Method in brief: (§4)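 Formulated test chemicals went onto postemergence plants measuring 2 to 18 cm, at one to four leaves. For the paddy assay, species had reached two leaves. Scoring took place 13–15 days later by eye, relative to untreated plants, using 0 for no effect up to 100 for full control.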

wheat = assay: Test B postemergence herbicide test; assay type: in vivo, Triticum aestivum; parameters: key to Wheat plant response rating: 0 = no effect, 100 = complete control; conditions: postemergence
Method in brief: as §4

wild oat = assay: Test B postemergence herbicide test; assay type: in vivo, Avena fatua; conditions: postemergence
Method in brief: as §4

rice = assay: Test B flooded paddy test; assay type: in vivo, Oryza sativa; conditions: 1000 g ai/ha, scale 0 to 100 (0 no effect, 100 complete control)
Method in brief: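 Treated at 2-leaf (paddy) or 1–4-leaf, 2–18 cm (postemergence); greenhouse 13–15 d; visual score vs control, 0 none to 100 complete control; dash = not tested.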

[11] = tested on: small flower umbrella sedge; assay: Test B flooded paddy test; assay type: in vivo, Cyperus difformis; conditions: 1000 g ai/ha, scale 0 to 100 (0 no effect, 100 complete control)
Method in brief: as §4

ducksalad = assay: Test B flooded paddy test; assay type: in vivo, Heteranthera limosa; conditions: 1000 g ai/ha, scale 0 to 100 (0 no effect, 100 complete control)
Method in brief: as §4

barnyardgrass [12] = assay: Test B flooded paddy test; assay type: in vivo, Echinochloa crus-galli; conditions: 1000 g ai/ha, scale 0 to 100 (0 no effect, 100 complete control)
Method in brief: as §4

[13] = Postemergence, 500 g ai/ha, 0 to 100 scale, 0 no effect, 100 complete control
[14] = Postemergence, 2000 g ai/ha, 0 to 100 scale, 0 no effect, 100 complete control
[15] = Preemergence, 2000 g ai/ha, visual rating, 0 to 100 scale (0 no effect, 100 complete control)
[16] = preemergence, 500 g ai/ha, visual injury, 0 to 100 scale (0 no effect, 100 complete control)
[17] = 125 g ai/ha, 0 is no effect, 100 is complete control, preemergence
[18] = 125 g ai/ha, visual rating, scale 0 (no effect) to 100 (complete control)
[19] = 500 g ai/ha, visual rating, 0 = no effect, 100 = complete control, preemergence
[20] = 500 g ai/ha, scale 0 to 100, 0 is no effect, 100 is complete control

CCn1nc(C(C)(C)C)cc1C(=O)Nc1cc(OC)ccc1F [Compound 347]
Barnyardgrass plant response rating (barnyardgrass [1]; [13]): 0
Plant response rating, Barnyardgrass (barnyardgrass [1]; [14]): 0
Barnyardgrass plant response rating (barnyardgrass [1]; [15]): 0
Barnyardgrass plant response rating (barnyardgrass [1]; [16]): 0
Crabgrass, Large plant response rating (large crabgrass [2]; [13]): 0
Plant response rating, Crabgrass, Large (large crabgrass [2]; [14]): 0
Crabgrass, Large plant response rating (large crabgrass [2]; [15]): 0
Crabgrass, Large plant response rating (large crabgrass [2]; [16]): 0
Foxtail, Giant plant response rating (giant foxtail [3]; [13]): 0
Plant response rating, Foxtail, Giant (giant foxtail [3]; [14]): 0
Foxtail, Giant plant response rating (giant foxtail [3]; [15]): 0
Foxtail, Giant plant response rating (giant foxtail [3]; [16]): 0
Morningglory plant response rating (morningglory [4]; [13]): 0
Plant response rating, Morningglory (morningglory [4]; [14]): 0
Morningglory plant response rating (morningglory [4]; [15]): 0
Morningglory plant response rating (morningglory [4]; [16]): 0
Pigweed plant response rating (redroot pigweed; [13]): 0
Plant response rating, Pigweed (redroot pigweed; [14]): 0
Pigweed plant response rating (redroot pigweed; [15]): 0
Pigweed plant response rating (redroot pigweed; [16]): 0
Velvetleaf plant response rating (velvetleaf [5]; [13]): 0
Plant response rating, Velvetleaf (velvetleaf [5]; [14]): 0
Velvetleaf plant response rating (velvetleaf [5]; [15]): 0
Velvetleaf plant response rating (velvetleaf [5]; [16]): 0
Plant response rating (0 to 100 scale), Barnyardgrass (barnyardgrass [6]; [17]): 0
Barnyardgrass plant response rating (barnyardgrass [6]; [18]): 0
Plant response rating, Barnyardgrass (barnyardgrass [6]; [19]): 0
Barnyardgrass plant response rating (barnyardgrass [6]; [20]): 0
Plant response rating (0 to 100 scale), Surinam Grass (Surinam grass; [17]): 0
Surinam Grass plant response rating (Surinam grass; [18]): 0
Plant response rating, Surinam Grass (Surinam grass; [19]): 0
Surinam Grass plant response rating (Surinam grass; [20]): 0
Plant response rating (0 to 100 scale), Cocklebur (cocklebur; [17]): 0
Cocklebur plant response rating (cocklebur; [18]): 0
Plant response rating, Cocklebur (cocklebur; [19]): 0
Cocklebur plant response rating (cocklebur; [20]): 0
Plant response rating (0 to 100 scale), Corn (corn; [17]): 0
Corn plant response rating (corn; [18]): 0
Plant response rating, Corn (corn; [19]): 0
Corn plant response rating (corn; [20]): 0
Plant response rating (0 to 100 scale), Crabgrass, Large (large crabgrass [7]; [17]): 0
Crabgrass, Large plant response rating (large crabgrass [7]; [18]): 0
Plant response rating, Crabgrass, Large (large crabgrass [7]; [19]): 0
Crabgrass, Large plant response rating (large crabgrass [7]; [20]): 0
Plant response rating (0 to 100 scale), Foxtail, Giant (giant foxtail [8]; [17]): 0
Foxtail, Giant plant response rating (giant foxtail [8]; [18]): 0
Plant response rating, Foxtail, Giant (giant foxtail [8]; [19]): 0
Foxtail, Giant plant response rating (giant foxtail [8]; [20]): 0
Plant response rating (0 to 100 scale), Lambsquarters (lambsquarters; [17]): 0
Lambsquarters plant response rating (lambsquarters; [18]): 10
Plant response rating, Lambsquarters (lambsquarters; [19]): 0
Lambsquarters plant response rating (lambsquarters; [20]): 10
Plant response rating (0 to 100 scale), Morningglory (morningglory [9]; [17]): 0
Morningglory plant response rating (morningglory [9]; [18]): 0
Plant response rating, Morningglory (morningglory [9]; [19]): 0
Morningglory plant response rating (morningglory [9]; [20]): 10
Plant response rating (0 to 100 scale), Pigweed (pigweed; [17]): 0
Pigweed plant response rating (pigweed; [18]): 0
Plant response rating, Pigweed (pigweed; [19]): 0
Pigweed plant response rating (pigweed; [20]): 10
Plant response rating (0 to 100 scale), Velvetleaf (velvetleaf [10]; [17]): 0
Velvetleaf plant response rating (velvetleaf [10]; [18]): 0
Velvetleaf plant response rating (velvetleaf [10]; [20]): 0
Blackgrass plant response rating (blackgrass; [18]): 30
Blackgrass plant response rating (blackgrass; [20]): 30
Wheat plant response rating (wheat; [18]): 0
Wheat plant response rating (wheat; [20]): 0
Oat, Wild plant response rating (wild oat; [18]): 0
Oat, Wild plant response rating (wild oat; [20]): 20
Rice plant response rating (rice): 0
Sedge, Umbrella plant response rating [11]: 0
Ducksalad plant response rating (ducksalad): 0
Barnyardgrass plant response rating (barnyardgrass [12]): 0
